How the values were obtained:
Experiment in all cases: relative viability (nuclei count vs DMSO), 5 days (fraction); higher = more cells survive
Daporinad + OSI-027 = compound: O=C(/C=C/c1cccnc1)NCCCCC1CCN(C(=O)c2ccccc2)CC1 [Daporinad] + COc1cccc2cc(-c3nc([C@H]4CC[C@H](C(=O)O)CC4)n4ncnc(N)c34)[nH]c12 [OSI-027] (partner 0.5 µM)
Method in brief: (§1)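 Relative viability equals treated-well nuclei counts divided by vehicle-well nuclei counts. Counts came from 4× images of lung cancer cell lines grown in 1536-well plates for 5 days after pin-tool dosing on the day after seeding. Dosing used one drug alone or a fixed anchor-drug dose plus five library-drug doses (not always all listed) in √10 steps, and values are medians of duplicate plates.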

R406 + Lapatinib = compound: COc1cc(Nc2ncc(F)c(Nc3ccc4c(n3)NC(=O)C(C)(C)O4)n2)cc(OC)c1OC [R406] + CS(=O)(=O)CCNCc1ccc(-c2ccc3ncnc(Nc4ccc(OCc5cccc(F)c5)c(Cl)c4)c3c2)o1 [Lapatinib] (partner 2 µM)
Method in brief: as §1

R406 + Foretinib = compound: COc1cc(Nc2ncc(F)c(Nc3ccc4c(n3)NC(=O)C(C)(C)O4)n2)cc(OC)c1OC [R406] + COc1cc2c(Oc3ccc(NC(=O)C4(C(=O)Nc5ccc(F)cc5)CC4)cc3F)ccnc2cc1OCCCN1CCOCC1 [Foretinib] (partner 0.25 µM)
Method in brief: as §1

Daporinad + AZD7762 = compound: O=C(/C=C/c1cccnc1)NCCCCC1CCN(C(=O)c2ccccc2)CC1 [Daporinad] + NC(=O)Nc1cc(-c2cccc(F)c2)sc1C(=O)N[C@H]1CCCNC1 [AZD7762] (partner 0.2 µM)
Method in brief: as §1

| Cell Line | relative viability (Daporinad + OSI-027; first compound 0.0005 µM) | relative viability (Daporinad + OSI-027; first compound 0.001581 µM) | relative viability (Daporinad + OSI-027; first compound 0.005 µM) | relative viability (Daporinad + OSI-027; first compound 0.01581 µM) | relative viability (R406 + Lapatinib; first compound 0.08 µM) | relative viability (R406 + Lapatinib; first compound 0.253 µM) | relative viability (R406 + Lapatinib; first compound 0.8 µM) | relative viability (R406 + Lapatinib; first compound 2.53 µM) | relative viability (R406 + Lapatinib; first compound 8 µM) | relative viability (R406 + Foretinib; first compound 0.08 µM) | relative viability (R406 + Foretinib; first compound 0.253 µM) | relative viability (R406 + Foretinib; first compound 0.8 µM) | relative viability (R406 + Foretinib; first compound 2.53 µM) | relative viability (R406 + Foretinib; first compound 8 µM) | relative viability (Daporinad + AZD7762; first compound 0.0005 µM) | relative viability (Daporinad + AZD7762; first compound 0.001581 µM) | relative viability (Daporinad + AZD7762; first compound 0.005 µM) | relative viability (Daporinad + AZD7762; first compound 0.01581 µM) |
| --- | --- | --- | --- | --- | --- | --- | --- | --- | --- | --- | --- | --- | --- | --- | --- | --- | --- | --- |
| 201T | 0.745 | 0.612 | 0.794 | 0.795 | 0.868 | 1.06 | 1.02 | 0.95 | 0.905 | 1.13 | 1.32 | 1.21 | 0.829 | 0.708 | 0.572 | 0.673 | 0.671 | 0.535 |
| A-427 | 0.435 | 0.471 | 0.503 | 0.31 | 0.922 | 1.14 | 1.17 | 0.958 | 0.801 | 1.09 | 1.35 | 1.24 | 0.983 | 0.814 | 0.83 | 0.765 | 0.759 | 0.529 |
| ABC-1 | 0.485 | 0.472 | 0.704 | 0.517 | 0.85 | 1.07 | 1.09 | 0.875 | 0.705 | 1.08 | 1.03 | 1.03 | 1.15 | 0.781 | 0.83 | 0.798 | 0.823 | 1.1 |
| BEN | 0.276 | 0.301 | 0.299 | 0.287 | 0.627 | 0.75 | 0.735 | 0.791 | 0.602 | 0.884 | 0.609 | 0.691 | 0.879 | 0.578 | 0.779 | 0.661 | 0.812 | 0.824 |
| CAL-12T | 0.65 | 0.541 | 0.719 | 0.33 | 0.697 | 0.698 | 0.775 | 0.638 | 0.288 | 1.03 | 1.23 | 1.22 | 1.09 | 0.812 | 0.553 | 0.528 | 0.609 | 0.333 |
| EKVX | 0.692 | 0.738 | 0.683 | 0.806 | 0.247 | 0.239 | 0.18 | 0.104 | 0.176 | 0.79 | 1 | 0.821 | 0.567 | 0.609 | 0.586 | 0.676 | 0.933 | 0.705 |
| EMC-BAC-2 | 0.393 | 0.435 | 0.326 | 0.202 | 0.888 | 0.963 | 0.93 | 0.921 | 0.806 | 0.98 | 1.05 | 1.11 | 0.385 | 0.579 | 1.09 | 1.28 | 1.02 | 0.413 |
| EPLC-272H | 0.243 | 0.298 | 0.316 | 0.365 | 0.888 | 0.924 | 1.1 | 0.442 | 0.228 | 0.425 | 0.617 | 0.792 | 0.304 | 0.126 | 0.19 | 0.271 | 0.268 | 0.297 |
| H3255 | 0.476 | 0.596 | 0.587 | 0.633 | 0.257 | 0.264 | 0.249 | 0.235 | 0.233 | 0.868 | – | 0.872 | 0.878 | 0.673 | 0.869 | 1.04 | 1.03 | 0.972 |
| HARA | 0.488 | 0.56 | 0.55 | 0.355 | 0.743 | 0.672 | 0.775 | 0.55 | 0.157 | 0.867 | 1.04 | 1.05 | 0.751 | 0.218 | 0.232 | 0.522 | 0.299 | 0.16 |
| HCC-15 | 0.669 | 0.807 | 0.789 | 0.779 | 0.822 | 1.02 | 0.94 | – | 0.687 | 1.07 | 1.12 | 1.19 | 1.01 | 0.643 | 1.16 | 1.33 | 1.26 | 1.15 |
| HCC-44 | 0.481 | 0.608 | 0.462 | 0.639 | 0.899 | 1.08 | 1.12 | 0.624 | 0.619 | – | – | – | – | – | 1.02 | 0.967 | 0.994 | 1.03 |
| HCC-78 | 0.378 | – | 0.383 | 0.368 | 0.673 | 0.919 | 0.888 | 0.649 | 0.354 | 0.562 | 0.602 | 0.642 | 0.57 | 0.56 | 0.6 | 0.626 | 0.53 | 0.796 |
| HCC-366 | 0.961 | 0.907 | 1.22 | 1.03 | 0.908 | 1.15 | 1.17 | – | 0.356 | 0.957 | 0.933 | 0.956 | 0.847 | 0.137 | 0.255 | – | 0.247 | 0.268 |
| HCC-827 | 0.78 | 0.865 | 0.881 | 0.74 | 0.163 | 0.21 | 0.186 | 0.169 | 0.17 | 0.991 | 1.08 | 1.05 | 0.81 | 0.157 | 0.219 | 0.23 | 0.263 | 0.287 |
| HOP-62 | 0.812 | 0.935 | 0.877 | 0.665 | 0.918 | 0.949 | 1.08 | 1.06 | 1.12 | 1.03 | 1.28 | 0.967 | 1.26 | 0.808 | 0.406 | 0.423 | 0.665 | 0.262 |
| LC-2-ad | 0.832 | 1.12 | 1.06 | 1.01 | 0.986 | 0.847 | 1.03 | 0.112 | 0.0913 | 0.899 | 1.03 | 0.903 | 0.7 | 0.547 | 0.762 | 0.88 | 0.79 | 0.964 |
| LCLC-97TM1 | 0.523 | 0.633 | 0.656 | 0.517 | 0.647 | 0.855 | 1.06 | 0.717 | 1.13 | 0.89 | 0.963 | 0.965 | 0.935 | 0.327 | 0.209 | 0.274 | 0.238 | 0.195 |

From the supplement of paper PMC10307832
